According to PubChem BioAssay (NCI):
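Compound exposure: 48 hours, 5 concentrations, 96-well plates. GI50 = concentration required for 50% inhibition of growth. TGI: total growth inhibition.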

Legend:
Experiment in all cases: NCI-60 cell line screen, 48 h
MDA-MB-435 = tested on: MDA-MB-435
A498 renal = tested on: A498 renal
K-562 leukemia = tested on: K-562 leukemia
PC-3 prostate = tested on: PC-3 prostate
UACC-62 melanoma = tested on: UACC-62 melanoma
TK-10 renal = tested on: TK-10 renal
786-0 renal = tested on: 786-0 renal
HS 578T breast = tested on: HS 578T breast
SK-MEL-5 melanoma = tested on: SK-MEL-5 melanoma
NCI-H522 lung = tested on: NCI-H522 lung
T-47D breast = tested on: T-47D breast
SNB-75 CNS = tested on: SNB-75 CNS
NCI-H460 lung = tested on: NCI-H460 lung
OVCAR-8 ovarian = tested on: OVCAR-8 ovarian
ACHN renal = tested on: ACHN renal
HL-60(TB) leukemia = tested on: HL-60(TB) leukemia
SF-295 CNS = tested on: SF-295 CNS
EKVX NSCLC = tested on: EKVX NSCLC
OVCAR-5 ovarian = tested on: OVCAR-5 ovarian
MCF7 breast = tested on: MCF7 breast
NCI/ADR-RES ovarian = tested on: NCI/ADR-RES ovarian
MOLT-4 leukemia = tested on: MOLT-4 leukemia
RPMI-8226 leukemia = tested on: RPMI-8226 leukemia
CAKI-1 renal = tested on: CAKI-1 renal
UACC-257 melanoma = tested on: UACC-257 melanoma
NCI-H226 lung = tested on: NCI-H226 lung
HOP-92 NSCLC = tested on: HOP-92 NSCLC
SF-268 CNS = tested on: SF-268 CNS
HOP-62 NSCLC = tested on: HOP-62 NSCLC
DU-145 prostate = tested on: DU-145 prostate
HCT-15 colon = tested on: HCT-15 colon
OVCAR-3 ovarian = tested on: OVCAR-3 ovarian
NCI-H23 lung = tested on: NCI-H23 lung
A549 NSCLC = tested on: A549 NSCLC
U251 CNS = tested on: U251 CNS
SK-MEL-28 melanoma = tested on: SK-MEL-28 melanoma
IGROV1 ovarian = tested on: IGROV1 ovarian
KM12 colon = tested on: KM12 colon
SN12C renal = tested on: SN12C renal
BT-549 breast = tested on: BT-549 breast
UO-31 renal = tested on: UO-31 renal
MALME-3M melanoma = tested on: MALME-3M melanoma
CCRF-CEM leukemia = tested on: CCRF-CEM leukemia
HCC-2998 colon = tested on: HCC-2998 colon
SW-620 colon = tested on: SW-620 colon
M14 melanoma = tested on: M14 melanoma
SR leukemia = tested on: SR leukemia
SF-539 CNS = tested on: SF-539 CNS
LOX IMVI melanoma = tested on: LOX IMVI melanoma
SNB-19 CNS = tested on: SNB-19 CNS
SK-MEL-2 melanoma = tested on: SK-MEL-2 melanoma
COLO 205 colon = tested on: COLO 205 colon
RXF 393 renal = tested on: RXF 393 renal
HCT-116 colon = tested on: HCT-116 colon
HT29 colon = tested on: HT29 colon
OVCAR-4 ovarian = tested on: OVCAR-4 ovarian
MDA-MB-231 breast = tested on: MDA-MB-231 breast
SK-OV-3 ovarian = tested on: SK-OV-3 ovarian

## CCN(CC)CCCNc1nc2ccccc2c2c(=O)c3cc(Cl)ccc3sc12
MDA-MB-435
  GI50: 1.89 µM
  TGI: 3.65 µM
A498 renal
  GI50: 8.42 µM
  TGI: 21.4 µM
K-562 leukemia
  GI50: 2.29 µM
  TGI: 5.51 µM
PC-3 prostate
  GI50: 3.41 µM
  TGI: 16.7 µM
UACC-62 melanoma
  GI50: 1.76 µM
  TGI: 3.39 µM
TK-10 renal
  GI50: 2.15 µM
  TGI: 3.97 µM
786-0 renal
  GI50: 1.69 µM
  TGI: 3.27 µM
HS 578T breast
  GI50: 3.13 µM
  TGI: 14.8 µM
SK-MEL-5 melanoma
  GI50: 3.11 µM
  TGI: 11.3 µM
NCI-H522 lung
  GI50: 2.02 µM
  TGI: 4.41 µM
T-47D breast
  GI50: 3.85 µM
  TGI: 27.7 µM
SNB-75 CNS
  GI50: 4.36 µM
  TGI: 18.3 µM
NCI-H460 lung
  GI50: 1.7 µM
  TGI: 3.36 µM
OVCAR-8 ovarian
  GI50: 3.26 µM
  TGI: 15.7 µM
ACHN renal
  GI50: 1.63 µM
  TGI: 3.22 µM
HL-60(TB) leukemia
  GI50: 5.03 µM
  TGI: 23.2 µM
SF-295 CNS
  GI50: 7.96 µM
  TGI: 21.9 µM
EKVX NSCLC
  GI50: 3.74 µM
  TGI: 17.3 µM
OVCAR-5 ovarian
  GI50: 2.25 µM
  TGI: 6.29 µM
MCF7 breast
  GI50: 1.32 µM
  TGI: 2.91 µM
NCI/ADR-RES ovarian
  GI50: 2.04 µM
  TGI: 4.99 µM
MOLT-4 leukemia
  GI50: 2.22 µM
  TGI: 4.92 µM
RPMI-8226 leukemia
  GI50: 3.2 µM
  TGI: 10.1 µM
CAKI-1 renal
  GI50: 4.4 µM
  TGI: 17.1 µM
UACC-257 melanoma
  GI50: 5.43 µM
  TGI: 22.5 µM
NCI-H226 lung
  GI50: 10.7 µM
  TGI: 25.1 µM
HOP-92 NSCLC
  GI50: 1.57 µM
  TGI: 6.58 µM
SF-268 CNS
  GI50: 3.26 µM
  TGI: 14.3 µM
HOP-62 NSCLC
  GI50: 3.05 µM
  TGI: 15.8 µM
DU-145 prostate
  GI50: 2.01 µM
  TGI: 4.13 µM
HCT-15 colon
  GI50: 1.61 µM
  TGI: 3.14 µM
OVCAR-3 ovarian
  GI50: 1.92 µM
  TGI: 4.15 µM
NCI-H23 lung
  GI50: 3.69 µM
  TGI: 15.1 µM
A549 NSCLC
  GI50: 2.02 µM
  TGI: 4.52 µM
U251 CNS
  GI50: 2.04 µM
  TGI: 4.92 µM
SK-MEL-28 melanoma
  GI50: 1.81 µM
  TGI: 3.34 µM
IGROV1 ovarian
  GI50: 1.36 µM
  TGI: 3.1 µM
KM12 colon
  GI50: 1.79 µM
  TGI: 3.24 µM
SN12C renal
  GI50: 3.68 µM
  TGI: 15.4 µM
BT-549 breast
  GI50: 15.8 µM
  TGI: 30.4 µM
UO-31 renal
  GI50: 1.79 µM
  TGI: 9.97 µM
MALME-3M melanoma
  GI50: 1.63 µM
  TGI: 3.26 µM
CCRF-CEM leukemia
  GI50: 2.81 µM
  TGI: 8.68 µM
HCC-2998 colon
  GI50: 1.91 µM
  TGI: 4.01 µM
SW-620 colon
  GI50: 1.77 µM
  TGI: 3.41 µM
M14 melanoma
  GI50: 1.94 µM
  TGI: 3.81 µM
SR leukemia
  GI50: 3.75 µM
  TGI: > 100 µM
SF-539 CNS
  GI50: 1.73 µM
  TGI: 3.35 µM
LOX IMVI melanoma
  GI50: 1.65 µM
  TGI: 3.08 µM
SNB-19 CNS
  GI50: 6.81 µM
  TGI: 20.4 µM
SK-MEL-2 melanoma
  GI50: 10.4 µM
  TGI: 27.5 µM
COLO 205 colon
  GI50: 2.33 µM
  TGI: 5.58 µM
RXF 393 renal
  GI50: 2.68 µM
  TGI: 10.8 µM
HCT-116 colon
  GI50: 1.73 µM
  TGI: 3.22 µM
HT29 colon
  GI50: 1.9 µM
  TGI: 3.98 µM
OVCAR-4 ovarian
  GI50: 4.68 µM
  TGI: 22.7 µM
MDA-MB-231 breast
  GI50: 1.45 µM
  TGI: 3.27 µM

## CC1CC(C)/C(=N/NC(N)=O)C(C(O)CC2CCC(=O)NC2=O)C1 (stereo not drawn)
MDA-MB-435
  GI50: 3.3 µM
  TGI: 97 µM
A498 renal
  GI50: 4.94 µM
  TGI: 92.4 µM
PC-3 prostate
  GI50: 4.1 µM
  TGI: > 100 µM
UACC-62 melanoma
  GI50: 2.79 µM
  TGI: > 100 µM
TK-10 renal
  GI50: 1.64 µM
  TGI: 10.2 µM
786-0 renal
  GI50: 3.46 µM
  TGI: > 100 µM
HS 578T breast
  GI50: 1.34 µM
  TGI: 8.25 µM
SK-MEL-5 melanoma
  GI50: 2.85 µM
  TGI: 34.8 µM
NCI-H522 lung
  GI50: 1.7 µM
  TGI: 18.1 µM
T-47D breast
  GI50: 4.41 µM
  TGI: > 100 µM
SNB-75 CNS
  GI50: 4.26 µM
  TGI: > 100 µM
NCI-H460 lung
  GI50: 4 µM
  TGI: > 100 µM
OVCAR-8 ovarian
  GI50: 2.71 µM
  TGI: 57.5 µM
ACHN renal
  GI50: 1.32 µM
  TGI: > 100 µM
HL-60(TB) leukemia
  GI50: 5.6 µM
  TGI: > 100 µM
SF-295 CNS
  GI50: 1.68 µM
  TGI: 13.5 µM
EKVX NSCLC
  GI50: 2.3 µM
  TGI: 22.6 µM
OVCAR-5 ovarian
  GI50: 3.73 µM
  TGI: 86.2 µM
MCF7 breast
  GI50: 3.92 µM
  TGI: > 100 µM
NCI/ADR-RES ovarian
  GI50: 3.66 µM
  TGI: > 100 µM
MOLT-4 leukemia
  GI50: 4.09 µM
  TGI: > 100 µM
RPMI-8226 leukemia
  GI50: 6.77 µM
  TGI: 94.1 µM
SK-OV-3 ovarian
  GI50: 4.08 µM
  TGI: > 100 µM
CAKI-1 renal
  GI50: 1.22 µM
  TGI: 20.3 µM
UACC-257 melanoma
  GI50: 3.48 µM
  TGI: 50.4 µM
NCI-H226 lung
  GI50: 4.69 µM
  TGI: > 100 µM
HOP-92 NSCLC
  GI50: 2.31 µM
  TGI: 31.5 µM
SF-268 CNS
  GI50: 2.98 µM
  TGI: 45.1 µM
HOP-62 NSCLC
  GI50: 2.99 µM
  TGI: > 100 µM
DU-145 prostate
  GI50: 3.78 µM
  TGI: 52.6 µM
HCT-15 colon
  GI50: 3.39 µM
  TGI: > 100 µM
OVCAR-3 ovarian
  GI50: 5.54 µM
  TGI: 48.1 µM
NCI-H23 lung
  GI50: 3.57 µM
  TGI: > 100 µM
A549 NSCLC
  GI50: 2.36 µM
  TGI: 56.7 µM
U251 CNS
  GI50: 1.96 µM
  TGI: 91.1 µM
SK-MEL-28 melanoma
  GI50: 3.91 µM
  TGI: > 100 µM
IGROV1 ovarian
  GI50: 2.64 µM
  TGI: 56.5 µM
KM12 colon
  GI50: 3.05 µM
  TGI: 42.4 µM
SN12C renal
  GI50: 1.99 µM
  TGI: > 100 µM
BT-549 breast
  GI50: 7.08 µM
  TGI: > 100 µM
UO-31 renal
  GI50: 2.33 µM
  TGI: 34.3 µM
MALME-3M melanoma
  GI50: 3.21 µM
  TGI: 41.8 µM
CCRF-CEM leukemia
  GI50: 2 µM
  TGI: 97.2 µM
HCC-2998 colon
  GI50: 5.07 µM
  TGI: > 100 µM
SW-620 colon
  GI50: 2.9 µM
  TGI: > 100 µM
M14 melanoma
  GI50: 3.64 µM
  TGI: > 100 µM
SR leukemia
  GI50: 8.1 µM
  TGI: > 100 µM
SF-539 CNS
  GI50: 3.07 µM
  TGI: 39.8 µM
LOX IMVI melanoma
  GI50: 2.48 µM
  TGI: > 100 µM
SNB-19 CNS
  GI50: 3.73 µM
  TGI: > 100 µM
SK-MEL-2 melanoma
  GI50: 2.2 µM
  TGI: 12.3 µM
COLO 205 colon
  GI50: 3.7 µM
  TGI: 51.5 µM
RXF 393 renal
  GI50: 3.21 µM
  TGI: 31.7 µM
HCT-116 colon
  GI50: 3.04 µM
  TGI: > 100 µM
HT29 colon
  GI50: 3.49 µM
  TGI: > 100 µM
OVCAR-4 ovarian
  GI50: 5.64 µM
  TGI: > 100 µM
MDA-MB-231 breast
  GI50: 8.4 µM
  TGI: 88.9 µM
